# Data reported in patent publication US20090062337A1, “Treatment of Microbial Infections” (WYSIS TECHNOLOGY FOUNDATION, INC., priority 2007, published 2009).
# System: Burkholderia cepacia
# Experiment: MIC against Burkholderia cepacia
# Format: cell-based
# Details: Table 2; comparison of compounds against Burkholderia cepacia
row,MIC [µg/mL],Structure (SMILES)
1,40,Nc1ccnc2ccccc12 [4-aminoquinoline]
2,> 128,Oc1ccc2ccccc2n1 [2-hydroxyquinolone]
